We go through 58 compounds from the Kinase Knowledgebase extract (Sharma et al. 2016).

SMILES strings stand for the structures.

For this assay, the target named is PIK3CD (Human) (UniProt O00329). Description: Cell-Free Assay.
Sequence of PIK3CD (Human) (O00329 whole entry, looked up): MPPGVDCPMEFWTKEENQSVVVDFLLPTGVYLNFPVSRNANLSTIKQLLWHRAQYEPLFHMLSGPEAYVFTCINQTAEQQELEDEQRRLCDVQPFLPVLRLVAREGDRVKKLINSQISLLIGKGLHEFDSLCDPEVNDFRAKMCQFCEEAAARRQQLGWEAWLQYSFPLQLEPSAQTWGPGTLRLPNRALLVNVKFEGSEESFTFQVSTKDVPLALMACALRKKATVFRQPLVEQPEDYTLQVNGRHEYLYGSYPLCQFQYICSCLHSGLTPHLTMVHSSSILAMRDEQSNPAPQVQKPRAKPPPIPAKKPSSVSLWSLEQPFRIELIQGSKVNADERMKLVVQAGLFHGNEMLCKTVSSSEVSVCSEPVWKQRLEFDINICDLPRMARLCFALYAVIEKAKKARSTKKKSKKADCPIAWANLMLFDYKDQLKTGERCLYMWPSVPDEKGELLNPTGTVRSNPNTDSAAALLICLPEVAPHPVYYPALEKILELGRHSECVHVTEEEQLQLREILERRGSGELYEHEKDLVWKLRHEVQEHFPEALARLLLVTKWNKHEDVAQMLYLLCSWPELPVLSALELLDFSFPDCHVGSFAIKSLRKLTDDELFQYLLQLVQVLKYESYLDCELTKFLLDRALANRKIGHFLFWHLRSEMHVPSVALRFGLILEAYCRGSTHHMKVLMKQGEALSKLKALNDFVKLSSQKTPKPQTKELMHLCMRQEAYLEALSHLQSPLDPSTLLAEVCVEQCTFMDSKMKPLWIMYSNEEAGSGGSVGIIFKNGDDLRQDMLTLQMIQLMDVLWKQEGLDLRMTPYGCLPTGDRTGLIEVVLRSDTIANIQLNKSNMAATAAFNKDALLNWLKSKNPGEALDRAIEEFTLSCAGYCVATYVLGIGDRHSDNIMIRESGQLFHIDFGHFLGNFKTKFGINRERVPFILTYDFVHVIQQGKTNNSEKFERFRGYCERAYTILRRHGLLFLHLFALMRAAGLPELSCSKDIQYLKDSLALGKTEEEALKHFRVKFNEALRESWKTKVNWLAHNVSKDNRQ
Usually IC50 stands for the point on the concentration scale where inhibition reaches its midpoint. `Cc1cc(C(=O)NCc2ccc(S(N)(=O)=O)cc2)cc(-c2nc([C@H](C)Nc3ncnc(N)c3C#N)nn3cccc23)c1` came in with an IC50 of 76.7 nM.

Take `Cc1cc(C(=O)NCCCCCN(C)CCO)cc(-c2nc([C@H](C)Nc3ncnc(N)c3C#N)nn3ccc(C)c23)c1`: the IC50 is 3.1 nM.

`Cc1ccn2nc(Cn3nc(-c4cncc(O)c4)c4c(N)ncnc43)nc(N3C[C@@H](C)N[C@@H](C)C3)c12`: the IC50 was 0.9 nM.

In turn, `Cc1ccn2nc(Cn3nc(-c4cc(O)cc(F)c4)c4c(N)ncnc43)nc(OC3CCN(C(C)C)CC3)c12` returned an IC50 of 1 nM.

As for `Cc1cc(N(C)C)cc(C2CCN(c3cc(-c4nc([C@H](C)Nc5ncnc(N)c5C#N)nn5ccc(C)c45)ccn3)CC2)n1`, the half-maximal inhibitory concentration (IC50) came to 2.8 nM.

In the case of `COc1ccc(S(=O)(=O)Nc2cc(-c3nc([C@H](C)Nc4ncnc(N)c4C#N)nn4ccc(C)c34)cnc2O)cc1`, the IC50 worked out at 10 nM.

Compound `Cc1cc(-c2nc([C@H](C)Nc3ncnc(N)c3C#N)nn3ccc(C)c23)n(C)n1` showed an IC50 of 9.9 nM.

In the case of `Cc1cc(-c2nc([C@H](C)Nc3ncnc(N)c3C#N)nn3cccc23)cc(C)c1C(=O)NCCO`, the IC50 is 11.4 nM.

`Cc1ccn2nc(Cn3nc(-c4cc(O)cc(F)c4)c4c(N)ncnc43)nc(N3C[C@@H]4CC[C@H]3CN4S(C)(=O)=O)c12`: the half-maximal inhibitory concentration (IC50) is 5.9 nM.

Turning to `Cc1ccn2nc([C@H](C)Nc3ncnc(N)c3-c3cc(O)cc(F)c3)nc(OCC3CCOCC3)c12`, the IC50 stood at 62 nM.

As for `Cc1ccn2nc(Cn3nc(-c4cc(O)cc(NS(C)(=O)=O)c4)c4c(N)ncnc43)nc(N3C[C@@H](C)N[C@@H](C)C3)c12`, the half-inhibitory concentration (IC50) was found to be 0.5 nM.

Take `COc1ncc(-c2c[nH]c3ncnc(N[C@@H](C)c4nc(N5C[C@@H](C)O[C@@H](C)C5)c5c(C)ccn5n4)c23)cc1NS(C)(=O)=O`: the IC50 came to 0.5 nM.

Compound `COc1ncc(-c2nc([C@H](C)Nc3ncnc(N)c3C#N)nn3ccc(C)c23)cc1NS(C)(=O)=O` yielded an IC50 of 7 nM.

Regarding `Cc1ccn2nc(Cn3nc(-c4cc(O)cc(F)c4)c4c(N)ncnc43)nc(OCCN3CCOCC3)c12`, the IC50 turned out to be 0.8 nM.

Compound `Cc1ccn2nc([C@H](C)Nc3ncnc4[nH]cc(-c5cnn(C)c5)c34)nc(N3C[C@@H](C)N[C@@H](C)C3)c12` registered an IC50 of 2 nM.

The compound `CN[C@H]1CCCC[C@@H]1N(C)c1nc([C@H](C)Nc2ncnc(N)c2C#N)nn2ccc(C)c12` gave an IC50 of 10.6 nM.

The compound `CC(=O)N1[C@H](C)CN(c2nc([C@H](C)Nc3ncnc(N)c3C#N)nn3ccc(C)c23)C[C@@H]1C` had an IC50 of 45.4 nM.

With `CNCCNc1nc([C@H](C)Nc2ncnc(N)c2C#N)nn2ccc(C)c12`, the IC50 stood at 6.1 nM.

`Cc1ccn2nc([C@H](Cc3cccc(O)c3)Nc3ncnc(N)c3C#N)nc(N3C[C@@H](C)N[C@@H](C)C3)c12` returned an IC50 of 8.8 nM.

In the case of `Cc1ccn2nc(Cn3nc(-c4cc(O)cc(F)c4)c4c(N)ncnc43)nc(N3CCSCC3)c12`, the IC50 came out at 2.7 nM.

Turning to `Cc1ccn2nc([C@H](C)Nc3ncnc(N)c3C#N)nc(N3CCC(CN4CCCC4)CC3)c12`, the half-maximal inhibitory concentration (IC50) came out at 6.2 nM.

For `Cc1cc(C(=O)NCc2ccc(C(=O)NCCO)cc2)cc(-c2nc([C@H](C)Nc3ncnc(N)c3C#N)nn3ccc(C)c23)c1`, the IC50 is 2.6 nM.

`Cc1ccn2nc([C@H](C)Nc3ncnc(N)c3C#N)nc(N3C[C@@H](C)N[C@@H](C)C3)c12`: the IC50 was found to be 0.5 nM.

In the case of `Cc1ccn2nc(Cn3nc(-c4cc(O)cc(F)c4)c4c(N)ncnc43)nc(N3CCS(=O)(=O)CC3)c12`, the IC50 was 2.5 nM.

`Cc1cc(C(=O)O)cc(-c2nc([C@H](C)Nc3ncnc(N)c3C#N)nn3ccc(C)c23)c1`: the IC50 was determined as 0.4 nM.

`Cc1ccn2nc([C@H](C)Nc3ncnc(N)c3C#N)nc(-c3cc(O)cc(C#N)c3)c12` showed an IC50 of 1.3 nM.

The compound `Cc1ccn2nc([C@H](C)Nc3ncnc4[nH]cc(-c5cc(O)cc(NS(=O)(=O)CCN(C)C)c5)c34)nc(N3C[C@@H](C)N[C@@H](C)C3)c12` showed an IC50 of 6.2 nM.

With `Cc1ccn2nc([C@H](C)Nc3ncnc(N)c3C#N)nc(-c3ccnc(N4CCC(N(C)C)CC4)c3)c12`, the IC50 amounted to 5.9 nM.

`Cc1ccn2nc(Cn3nc(-c4cc(O)cc(F)c4)c4c(N)ncnc43)nc(OCC3CCOCC3)c12`: the concentration for half-maximal inhibition (IC50) was found to be 2 nM.

Consider `Cc1ccn2nc(Cn3nc(-c4cc(O)cc(F)c4)c4c(N)ncnc43)nc(N(CCN(C)C)c3cccc(O)c3)c12`, for which the IC50 came out at 0.1 nM.

For the compound `Cc1ccn2nc(Cn3nc(-c4cc(O)cc(F)c4)c4c(N)ncnc43)nc(OCCN3CCCC3=O)c12`, the IC50 turned out to be 2.5 nM.

Turning to `Cc1ccn2nc([C@H](C)Nc3ncnc(N)c3C#N)nc(-c3cc(O)cc(C(=O)NC4CC4)c3)c12`, the IC50 turned out to be 2 nM.

The compound `Cc1ccn2nc(Cn3nc(-c4cc(O)cc(F)c4)c4c(N)ncnc43)nc(OCCN3CCC(C(=O)O)CC3)c12` came in with an IC50 of 0.6 nM.

In turn, `Cc1ccn2nc([C@H](C)Nc3ncnc(N)c3C#N)nc(-c3ccc(O)c(C(C)(C)O)c3)c12` displayed an IC50 of 8 nM.

In turn, `C[C@H](Nc1ncnc(N)c1C#N)c1nc(OCC2CCOCC2)c2c(Br)ccn2n1` gave a half-maximal inhibitory concentration (IC50) of 6 nM.

For the compound `Cc1ccn2nc([C@H](C)Nc3ncnc(N)c3C#N)nc(N(CCN3CCOCC3)c3cccc(O)c3)c12`, the IC50 worked out at 13 nM.

In turn, `Cc1cc(-c2nc([C@H](C)Nc3ncnc(N)c3C#N)nn3ccc(C)c23)cc(C)c1O` came in with an IC50 of 0.3 nM.

Take `Cc1ccn2nc([C@H](C)Nc3ncnc(N)c3C#N)nc(N(CCN(C)C)Cc3ccc(N4CCC(N(C)C)CC4)cc3)c12`: the IC50 is 6.4 nM.

With `C[C@H](Nc1ncnc(N)c1C#N)c1nc(OCC2CCNCC2)c2cccn2n1`, the IC50 was 27 nM.

For `CCOC(=O)C1CCN(CCOc2nc(Cn3nc(-c4cc(O)cc(F)c4)c4c(N)ncnc43)nn3ccc(C)c23)CC1`, the IC50 was determined as 1.2 nM.

For `C[C@H](Nc1ncnc(N)c1C#N)c1nc(OCC2CCOCC2)c2c(C#N)ccn2n1`, the half-inhibitory concentration (IC50) was determined as 31 nM.

Regarding `Cc1ccn2nc(Cn3nc(-c4cc(O)cc(F)c4)c4c(N)ncnc43)nc(NCCN3CCCC3)c12`, the IC50 was found to be 1.1 nM.

`Cc1ccn2nc([C@H](C)Nc3ncnc4[nH]cc(C#N)c34)nc(N(CCN(C)C)c3cccc(O)c3)c12` showed a half-maximal inhibitory concentration (IC50) of 1 nM.

On to `Cc1ccn2nc(Cn3nc(-c4cc(O)cc(F)c4)c4c(N)ncnc43)nc(N3C[C@@H]4C[C@H]3CN4)c12`, for which the IC50 worked out at 1 nM.

Take `Cc1ccn2nc(Cn3nc(-c4cc(O)cc(F)c4)c4c(N)ncnc43)nc(N3CCCNCC3)c12`: the IC50 was 6.1 nM.

For `Cc1ccn2nc(Cn3nc(-c4cc(O)cc(F)c4)c4c(N)ncnc43)nc(N3CCC(C(N)=O)CC3)c12`, the IC50 turned out to be 2.8 nM.

Turning to `Cc1ccn2nc(Cn3nc(-c4cc(O)cc(F)c4)c4c(N)ncnc43)nc(N3C[C@@H](C)O[C@@H](C)C3)c12`, the IC50 is 1 nM.

Compound `Cc1ccn2nc([C@H](C)Nc3ncnc(N)c3C#N)nc(OC3CCN(C(C)C)CC3)c12` yielded a half-maximal inhibitory concentration (IC50) of 6 nM.

The compound `Cc1ccn2nc([C@H](C)Nc3ncnc(N)c3C#N)nc(-c3cc(O)cc(C(F)(F)F)c3)c12` registered an IC50 of 1 nM.

Take `Cc1cc(C(=O)N(C)Cc2cccc(O)c2)cc(-c2nc([C@H](C)Nc3ncnc(N)c3C#N)nn3ccc(C)c23)c1`: the IC50 came out at 1.7 nM.

For the compound `Cc1ccn2nc([C@H](C)Nc3ncnc(N)c3C#N)nc(CCN3CCOCC3)c12`, the IC50 was 1.9 nM.

For `CC(C)Oc1nc([C@H](C)Nc2ncnc(N)c2C#N)nn2cccc12`, the IC50 came to 62 nM.

`COc1cccc(N(C)c2nc([C@H](C)Nc3ncnc(N)c3C#N)nn3ccc(C)c23)c1` displayed an IC50 of 19 nM.

`Cc1ccn2nc([C@H](C)Nc3ncnc(N)c3C#N)nc(-c3cc(O)cc(C(=O)NCCN(C)C)c3)c12` showed an IC50 of 3.6 nM.

`Cc1ccn2nc([C@H](C)Nc3ncnc(N)c3C#N)nc(Oc3cccc(CO)c3)c12` showed an IC50 of 7 nM.

In turn, `Cc1ccn2nc([C@H](C)Nc3ncnc(N)c3C#N)nc(Oc3cccc(NCCN(C)C)c3)c12` showed a half-inhibitory concentration (IC50) of 10 nM.

Take `Cc1ccn2nc([C@H](C)Nc3ncnc(N)c3C#N)nc(N(CCN(C)C)Cc3ccc(N4CCN(C)CC4)cc3)c12`: the half-inhibitory concentration (IC50) came to 2.9 nM.

With `Cc1ccn2nc([C@H](C)Nc3ncnc(N)c3C#N)nc(N[C@@H](Cc3ccc(O)cc3)C(N)=O)c12`, the IC50 is 14.6 nM.
